In paper PMC7570852, “Ruthenium(II)/(III) DMSO-Based Complexes of 2-Aminophenyl Benzimidazole with In Vitro and In Vivo Anticancer Activity” (Molecules, 2020):
Marks after values point to notes of the source that are not given here.

What was measured:
[1] = tested on: MCF7 cells; assay: DNA fragmentation (agarose gel), MCF7; type: cell-based, human; settings: MCF7, 117.6 µg/mL, 4 h
Method: MCF7 and Caco2 cells were collected and genomic DNA was extracted using a Gene JET genomic DNA extraction kit following the manufacturer’s protocol (Thermo Scientific, #K0721). The extracted DNA samples were run on a 1.5% agarose gel at 50 V for 2 h and the fragment pattern was visualized by ethidium bromide staining under a UV transilluminator.

[2] = Solution stability by UV-Vis spectroscopy; type: physicochemical; settings: 4% DMSO, 96% PBS, pH 7.4, over 24 h
Method: Stability studies of complexes (1) and (2) were carried out by UV-Vis spectroscopy in the 200–900 nm range. […] The electronic spectra for the solutions were measured over 24 h.

[3] = tested on: SOD, GSH, CAT, TAC; assay: Oxidative stress markers in serum of EAC-bearing mice; type: in vivo
Method: (§1) The mice were divided into the following eight groups (10 mice in each group): • Control group: Mice were intraperitoneally injected with a vehicle (2% DMSO + sterile saline) for 12 days. • I, II, and III control groups: Healthy normal mice were intraperitoneally injected with 6, 12, and 18 mg/kg of complex (2), respectively, for 12 days. • EAC group: Mice were intraperitoneally injected by a single dose of 2.5 × 10^6 viable Ehrlich ascites carcinoma (EAC) cells in PBS. In brief, EAC cells were withdrawn from the EAC mouse’s intraperitoneal cavity, washed, and centrifuged three times with sterile saline. Then, the pellets were suspended in sterile PBS and counted by the trypan blue exclusion assay, which confirmed that the viability of the cells was 98%. • I, II, and III treated groups: Firstly, 30 healthy mice were intraperitoneally injected with a single dose of 2.5 × 10^6 viable EAC cells. After one day; the mice were divided into I, II, and III treated groups (10 mice each group), intraperitoneally injected with 6, 12, and 18 mg/kg Ru(III) complex, respectively, for 12 days.
(§2) The animals were monitored for EAC growth by measuring abdominal size. At the end of the experiment all animals were fasted overnight then sacrificed. Serum samples were collected to study the biological parameters such as liver and kidney function as well as antioxidant enzyme activity. Liver samples from each group were frozen immediately in liquid nitrogen for molecular analysis.
The SOD activity in serum samples was evaluated as described by Dechatelet et al.. GSH was assayed in serum samples by detection of a yellow colored product following a reaction with 5,5’-dithiobis(2-nitrobenzoic acid) (DTNB). The catalase activity was estimated according to Aebi. Total antioxidant capacity (TAC) was determined by the method of Koracevic et al..

[4] = tested on: Ehrlich ascites carcinoma (EAC); assay: Serum liver and kidney function tests, EAC-bearing mice; type: in vivo; settings: mean ± SEM
Method: as §1, §2
Liver function tests. Serum GPT and GOT activities were measured by the method of Murray with a standard kit. The enzyme activities were estimated by measuring the decrease in absorbance of NADH at 340 nm. Bilirubin concentration was estimated by the colorimetric method of Kaplan et al.. Albumin concentration was measured colorimetrically by the color change of bromocresol from yellow-green to green-blue.
Kidney function tests. Creatinine was estimated colorimetrically by reacting with alkaline picrate forming a red complex. Urea was hydrolyzed enzymatically into ammonia which reacts with several compounds to form a green complex that can be measured colorimetrically. Uric acid was estimated by the enzymatic method of Schultz.

[5] = tested on: Caco2 cells; assay: Cell-cycle analysis by flow cytometry (PI), Caco2; type: cell-based, human; settings: Caco2, 117.6 μg/mL, 24 h
Method: The Ru(III) complex (2) (117.6 μg/mL) was added to MCF7 and Caco2 cells at a confluence of 70–80% and incubated for 24 h (in a CO2 incubator). The cells were then digested with warm trypsin-EDTA + warm PBS-EDTA (0.25%) (500 + 500 μL) with incubation for 10 min at 37 °C. The mixture was centrifuged (450 rpm) for 5 min, then the supernatant was removed. The mixture was washed twice in warm PBS and the cell pellet was re-suspended in 500 µl warm PBS, centrifuged and the supernatant decanted. A volume of 150 μL PBS + 350 μL ice-cold 70% ethanol was added and incubated at 4 °C for 1 h to fix the cells. To remove ethanol, the mixture was centrifuged at 350 rpm for 10 min and then the supernatant was removed. The mixture was washed twice in warm PBS and the cells were re-suspended in 500 μL of warm PBS, centrifuged, and the supernatant was removed. The cells were resuspended in 100 μL PBS and stored at 4 °C for up to four days. In darkness, the cells were stained with 100 µL of propidium iodide (PI) solution + 50 µL RNase A solution (100 µg/mL) and incubated in darkness for 30–60 min. The stained cells were read in an Attune flow cytometer (Applied Bio-system, Foster City, CA, USA).

[6] = three treated groups vs untreated EAC group
[7] = II treated 12 mg/kg i.p. 12 days
[8] = III treated 18 mg/kg i.p. 12 days

Question: What does the source list for CS(C)=O.Nc1ccccc1-c1nc2ccccc2[nH]1.O.[Cl][Ru]([Cl])[Cl] [(2), [Ru(III)Cl3(DMSO)(Hapbim)]·H2O]?
Answer: DNA fragmentation [1]: distinct DNA laddering; solution stability (UV-Vis spectral change) [2]: changes in absorption bands near 288, 326, and 690 nm after 1 h; SOD levels ([3]; I (6 mg/kg), II (12 mg/kg), III (18 mg/kg) treated groups vs untreated EAC group): elevated; CAT levels [3, 6]: increased; GSH levels [3, 6]: increased; total antioxidant capacity (TAC) ([3]; three treated groups vs untreated EAC group, p < 0.0001): significantly increased; Albumin ([4]; I treated 6 mg/kg i.p. 12 days): 0.9 ± 0.03 g/dL; Bilirubin ([4]; I treated 6 mg/kg i.p. 12 days): 0.18 ± 0.03 mg/dL; Creatinine ([4]; I treated 6 mg/kg i.p. 12 days): 0.7 ± 0.01 mg/dL; GOT ([4]; I treated 6 mg/kg i.p. 12 days): 248 ± 15.6 ^a U/L; GPT ([4]; I treated 6 mg/kg i.p. 12 days): 15.2 ± 0.7 U/L; Urea ([4]; I treated 6 mg/kg i.p. 12 days): 34.5 ± 0.4 mg/dL; Uric Acid ([4]; I treated 6 mg/kg i.p. 12 days): 2.6 ± 0.1 mg/dL; Albumin [4, 7]: 2.7 ± 0.3 g/dL; Bilirubin [4, 7]: 0.2 ± 0.03 mg/dL; Creatinine [4, 7]: 0.7 ± 0.1 mg/dL; GOT [4, 7]: 179 ± 10.8 U/L; GPT [4, 7]: 17.8 ± 0.6 U/L; Urea [4, 7]: 34.2 ± 0.6 mg/dL; Uric Acid [4, 7]: 2.7 ± 0.1 mg/dL; Albumin [4, 8]: 2.6 ± 0.1 g/dL; Bilirubin [4, 8]: 0.18 ± 0.02 mg/dL; Creatinine [4, 8]: 1 ± 0.1 ^a mg/dL; GOT [4, 8]: 145 ± 39.3 U/L; GPT [4, 8]: 31.9 ± 7.8 U/L; Urea [4, 8]: 33.3 ± 1.2 mg/dL; Uric Acid [4, 8]: 2.8 ± 0.1 mg/dL; cells in G0/G1 phase [5]: 18%; cells in G2/M phase [5]: 62%; cells in S phase [5]: 20%
